# Experimental data from patent US7557085B2, “Metabolic-based methods for modulating gene expression” (Wisconsin Alumni Research Foundation, priority 2005, dated 2009).
# Test system: NRSF binding site (NSRE) from the mouse homolog of the human snail promoter
# Assay: SV40 luciferase reporter with snail promoter NRSE in HEK 293 cells
# Assay type: cell-based
# Settings: HEK 293 cells grown overnight in the presence of glucose
# Text: FIG. 12 is a graph showing repression of expression of a reporter gene using an SV40 promoter with or without the NRSF binding site from the human snail promoter. HG=glucose; Pyr=pyruvate; 2-DG=2-deoxyglucose.
# To investigate whether the effects of 2-DG on gene expression is evidenced in genes known to be involved in metastatic growth, the NRSF binding site (NSRE) from the mouse homolog of the human snail promoter (GenBank Accession No. NM_005985), comprising a 440 bp nucleotide sequence
# identified as SEQ ID NO. 6 was introduced into the SV40 promoter in the plasmid vector pGL3 (available from Promega, Madison, Wis.) at the BglII and Acc65I restriction enzyme recognition sites). In pGL3. a luciferase reporter gene is under the transcriptional control of the SV40 promoter, and in the construct described herein transcription from the SV40 promoter is regulated by NRSE/NRSF. Reporter plasmids with and without the NSRE insert were transfected into HEK 293 cells (ATCC Accession No. CRL 1573 ATCC, Manassas, Va.) and the cells grown overnight in the presence of glucose with and without pyruvate, 2-DG or both pyruvate and 2DG. […]
structure (smiles),measurement,value
"O=CC[C@@H](O)[C@H](O)[C@H](O)CO [2-DG, 2-deoxy-D-glucose]",reporter gene expression (ratio of SV40-driven to NRSE/SV40 luciferase expression),decreased
